Data reported in paper PMC11984407, “A natural small molecule isoginkgetin alleviates hypercholesterolemia and atherosclerosis by targeting ACLY” (Theranostics, 2025).

How the values were obtained:
ACLY = molecular target: T1, ACLY (Mus musculus, UniProt Q91V92); assay: Cellular thermal shift assay in AML12 cell lysates; assay type: binding; set-up: The AML12 cell lysates were separated into two portions; endogenous in cells; host or cells: AML12; settings: 5 µM, 50 to 90 °C
T1 sequence (Q91V92 1-1091): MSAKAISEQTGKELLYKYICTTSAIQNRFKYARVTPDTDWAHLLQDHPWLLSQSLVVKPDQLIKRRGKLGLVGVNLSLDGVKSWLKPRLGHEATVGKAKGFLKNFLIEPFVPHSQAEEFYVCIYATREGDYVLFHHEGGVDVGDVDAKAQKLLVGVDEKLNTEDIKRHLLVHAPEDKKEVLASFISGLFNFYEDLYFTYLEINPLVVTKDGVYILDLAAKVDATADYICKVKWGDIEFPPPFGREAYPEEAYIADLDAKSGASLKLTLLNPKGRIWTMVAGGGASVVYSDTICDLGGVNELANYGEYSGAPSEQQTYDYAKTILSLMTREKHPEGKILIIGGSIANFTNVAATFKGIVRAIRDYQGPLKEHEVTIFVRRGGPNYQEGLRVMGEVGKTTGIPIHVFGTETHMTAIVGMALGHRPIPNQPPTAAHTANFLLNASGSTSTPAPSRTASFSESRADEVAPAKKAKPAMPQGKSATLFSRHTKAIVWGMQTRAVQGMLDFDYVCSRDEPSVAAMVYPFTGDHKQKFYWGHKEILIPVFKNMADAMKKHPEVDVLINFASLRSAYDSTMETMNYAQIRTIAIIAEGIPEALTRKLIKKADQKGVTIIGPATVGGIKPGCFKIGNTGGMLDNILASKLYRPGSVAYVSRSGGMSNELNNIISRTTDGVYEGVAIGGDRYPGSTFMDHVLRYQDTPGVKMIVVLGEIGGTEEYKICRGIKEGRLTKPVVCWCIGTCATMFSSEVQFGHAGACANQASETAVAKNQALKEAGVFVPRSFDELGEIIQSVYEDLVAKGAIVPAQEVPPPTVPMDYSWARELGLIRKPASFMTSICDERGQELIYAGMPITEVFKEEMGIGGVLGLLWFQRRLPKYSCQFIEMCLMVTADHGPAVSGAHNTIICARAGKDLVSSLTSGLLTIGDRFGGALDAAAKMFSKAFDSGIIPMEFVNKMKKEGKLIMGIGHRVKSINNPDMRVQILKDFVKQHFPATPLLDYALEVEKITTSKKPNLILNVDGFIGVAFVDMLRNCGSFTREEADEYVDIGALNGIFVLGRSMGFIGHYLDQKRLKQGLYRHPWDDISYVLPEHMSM
Experimental: The AML12 cell lysates were separated into two portions; one served as a control, while the other was exposed to 5 µM ISOGK for 1 h at room temperature. Subsequently, the lysates were individually heated at the specified temperatures (50 to 90 °C) for 5 min and allowed to cool at room temperature. Following this, the lysates underwent centrifugation at 12,000 rpm for 10 min at 4 °C, after which the supernatants were analyzed through Western blot.

AMPK = assay: Western blot of p-AMPK in AML12 and HepG2 cells; assay type: cell-based; settings: 5 µM, 12 h after 50 µM palmitic acid
Experimental: (§1) Western blotting was performed as previously described. In brief, whole-cell lysates from cultured cells and animal tissue were prepared using 1× sample buffer, followed by boiling at 95 °C for 10 min. Subsequently, SDS-PAGE was employed to separate the samples, which were then transferred onto a nitrocellulose membrane (Pall, NY, USA). Subsequently, the membrane was incubated in a blocking buffer for one h at room temperature. Following the removal of the blocking buffer, the blots were incubated with primary antibodies (1:1,000 dilution) at 4 °C overnight. The membrane was washed thrice for 10 min each, using 1× Tris-buffered saline with 0.1% Tween-20 (TBST). Subsequently, the membranes were incubated with IRDye® 680RD Goat anti-Mouse IgG (H + L) or IRDye® 800CW Goat anti-Rabbit IgG (H + L) (1:10,000 dilution, LI-COR, Lincoln, Nebraska, USA) at room temperature for 1 h. Visualization of the blots was carried out using the Li-COR CLx infrared imaging system. GAPDH (60004-1-Ig, Proteintech, Chicago, IL, USA), ACLY (67166-1-Ig, Proteintech, Chicago, IL, USA), LDLR (10785-1-AP, Proteintech, Chicago, IL, USA), β-Actin (66009-1-Ig, Proteintech, Chicago, IL, USA), AMPK (10929-2-AP, Proteintech, Chicago, IL, USA), p-AMPK^T172 (2535, Cell Signaling Technology, Danvers, MA, USA).

[1] = system: LDLR and ACLY protein levels; assay: Western blot of LDLR and ACLY in Huh-7 cells; assay type: cell-based, human; settings: Huh-7, various concentrations
Experimental: as §1

## COc1ccc(-c2cc(=O)c3c(O)cc(O)c(-c4cc(-c5cc(=O)c6c(O)cc(O)cc6o5)ccc4OC)c3o2)cc1 [ISOGK, Isoginkgetin]
ACLY
  thermal stabilization of ACLY: stabilized the ACLY protein
AMPK
  p-AMPK protein expression: activate AMPK
[1]
  LDLR and ACLY protein levels: no significant change in the LDLR and ACLY protein levels
